# Data: US12391679B2, “Benzamide-substituted bicyclic imidazo- and pyrazolo-fused -pyridine, -pyrimide, and -pyridazine compounds for treatment of inflammatory diseases” (ONCO3R Therapeutics BV, priority 2019, dated 2025)
# Assays:
# B10.RIII mice, IL-23 EEV = test: Murine model of psoriatic arthritis induced by overexpression of IL-23; type: in vivo; conditions: mouse, IL-23 overexpression
# Text: Mouse IL-23 enhanced episomal expression vector (EEV) was obtained from System Biosciences (Cat #EEV651A-1). Mouse IL-23 Quantikine ELISA Kits were obtained from R&D Systems (Cat #M2300). ProSense® 680 and OsteoSense® 750EX were obtained from PerkinElmer (Cat #NEV10003 and NEV10053EX). RNAlater® was obtained from Ambion (Cat #AM7021). Imalgene® 1000 (Merial) and Rompun® 2% (Bayer) were obtained from Centravet (Cat #IMA004-6827812 and ROM001-6835444).
# B10.RIII mice (male, 8-week old) were obtained from Charles River (Écully, France). Mice were kept on a 12 h light/dark cycle. Temperature was maintained at 22±2° C., food and water were provided ad libitum.
# The design of the study is adapted from Sherlock J P. et al. (Sherlock et al. 2012).
# On the first day (D1), the mice underwent a hydrodynamic injection of Ringer or IL-23 EEV in Ringer into the tail vein.
# As of D5, twice a week, the mice were scored for clinical symptoms until the end of the experiment.
# On D5, blood was collected by puncture in the submandibular vein to assess the serum IL-23 concentration.
# On D9, mice from all groups received ProSense® 680 probe (0.8 nmol/10 g, i.p.). On D10, the mice were anesthetized. Granulocyte infiltration was then measured using in vivo molecular imaging (Bruker In-Vivo Xtreme imaging system).
# On D11, randomization was performed according to ProSense® 680 molecular imaging and scoring.
# As of D12, mice were dosed with test compound or with vehicle.
# On D36, mice from all groups were sacrificed 2 h after last administration of compound.
# Twice weekly, clinical signs of inflammation were scored: 0 for normal paw; 1 if swelling of one digit; 2 if swelling of two or more digits; 3 if swelling of the entire paw. The scores of all limbs were summed up to produce a global score.
# There were 10 mice per group. The results are expressed as mean±SEM and statistical analysis is performed using one-way ANOVA followed by Dunnett's post-hoc test versus diseased vehicle group for scoring and imaging analysis, versus sham vehicle group for body weight.
# SIK1 = biological target: T1, SIK1 (Homo sapiens, UniProt P57059); test: 33P radioactive kinase assay, SIK1; type: biochemical
# T1 construct: purchased Carna Biosciences 02-131
# T1 sequence (P57059 whole entry): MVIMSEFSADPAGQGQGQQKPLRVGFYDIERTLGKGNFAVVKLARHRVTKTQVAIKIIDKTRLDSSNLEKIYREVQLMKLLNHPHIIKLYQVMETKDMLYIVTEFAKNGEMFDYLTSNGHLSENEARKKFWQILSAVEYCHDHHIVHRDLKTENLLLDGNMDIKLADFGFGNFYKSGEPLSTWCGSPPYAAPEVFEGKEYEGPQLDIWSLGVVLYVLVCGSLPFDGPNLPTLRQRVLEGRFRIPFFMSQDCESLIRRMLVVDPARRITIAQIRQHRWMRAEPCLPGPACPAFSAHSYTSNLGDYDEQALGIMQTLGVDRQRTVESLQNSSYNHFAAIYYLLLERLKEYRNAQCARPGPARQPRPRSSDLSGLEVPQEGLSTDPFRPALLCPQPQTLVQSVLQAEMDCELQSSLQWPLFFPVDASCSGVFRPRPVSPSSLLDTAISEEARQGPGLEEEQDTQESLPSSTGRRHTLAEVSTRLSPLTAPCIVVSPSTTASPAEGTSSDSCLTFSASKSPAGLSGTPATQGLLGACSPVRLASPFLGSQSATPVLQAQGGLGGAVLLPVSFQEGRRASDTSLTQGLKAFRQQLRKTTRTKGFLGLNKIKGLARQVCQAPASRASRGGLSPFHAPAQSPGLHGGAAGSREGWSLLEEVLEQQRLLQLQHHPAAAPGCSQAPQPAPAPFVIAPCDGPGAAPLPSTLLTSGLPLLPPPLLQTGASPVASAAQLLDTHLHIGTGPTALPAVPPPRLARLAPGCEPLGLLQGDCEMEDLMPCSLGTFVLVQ
# Procedure, shortened: (§1)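 SIK1, SIK2 or SIK3 phosphorylation of AMARA peptide with [33P]-γ-ATP plus unlabeled ATP. 10-point 1/5 dilution series, 1% DMSO final; reactions stopped with phosphoric acid, filter-harvested and scintillation-counted. Percentage inhibition and average IC50 derived from dose-response curves.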
# SIK3 = biological target: T2, SIK3 (Homo sapiens, UniProt Q9Y2K2); test: 33P radioactive kinase assay, SIK3; type: biochemical; conditions: 33P radioactive assay; AMARA 7 μM; 15 μM ATP; 80 min; average IC50
# T2 construct: purchased SignalChem S12-11G-100
# T2 sequence (Q9Y2K2 59-365 limits assumed): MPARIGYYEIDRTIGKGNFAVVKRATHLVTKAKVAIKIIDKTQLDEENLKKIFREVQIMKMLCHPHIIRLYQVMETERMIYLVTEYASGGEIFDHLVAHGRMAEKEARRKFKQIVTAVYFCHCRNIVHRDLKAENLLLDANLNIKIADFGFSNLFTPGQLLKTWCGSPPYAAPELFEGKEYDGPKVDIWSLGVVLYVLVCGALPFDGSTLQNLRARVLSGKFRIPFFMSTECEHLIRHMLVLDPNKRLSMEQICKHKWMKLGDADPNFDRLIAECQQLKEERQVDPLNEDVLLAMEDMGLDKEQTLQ
# Procedure, shortened: as §1
# SIK2 = biological target: T3, SIK2 (Homo sapiens, UniProt Q9H0K1); test: 33P radioactive kinase assay, SIK2; type: biochemical; note: AMARA 5 µM, 10 µM ATP
# T3 construct: purchased ThermoFisher Scientific PV4792
# T3 sequence (Q9H0K1 whole entry): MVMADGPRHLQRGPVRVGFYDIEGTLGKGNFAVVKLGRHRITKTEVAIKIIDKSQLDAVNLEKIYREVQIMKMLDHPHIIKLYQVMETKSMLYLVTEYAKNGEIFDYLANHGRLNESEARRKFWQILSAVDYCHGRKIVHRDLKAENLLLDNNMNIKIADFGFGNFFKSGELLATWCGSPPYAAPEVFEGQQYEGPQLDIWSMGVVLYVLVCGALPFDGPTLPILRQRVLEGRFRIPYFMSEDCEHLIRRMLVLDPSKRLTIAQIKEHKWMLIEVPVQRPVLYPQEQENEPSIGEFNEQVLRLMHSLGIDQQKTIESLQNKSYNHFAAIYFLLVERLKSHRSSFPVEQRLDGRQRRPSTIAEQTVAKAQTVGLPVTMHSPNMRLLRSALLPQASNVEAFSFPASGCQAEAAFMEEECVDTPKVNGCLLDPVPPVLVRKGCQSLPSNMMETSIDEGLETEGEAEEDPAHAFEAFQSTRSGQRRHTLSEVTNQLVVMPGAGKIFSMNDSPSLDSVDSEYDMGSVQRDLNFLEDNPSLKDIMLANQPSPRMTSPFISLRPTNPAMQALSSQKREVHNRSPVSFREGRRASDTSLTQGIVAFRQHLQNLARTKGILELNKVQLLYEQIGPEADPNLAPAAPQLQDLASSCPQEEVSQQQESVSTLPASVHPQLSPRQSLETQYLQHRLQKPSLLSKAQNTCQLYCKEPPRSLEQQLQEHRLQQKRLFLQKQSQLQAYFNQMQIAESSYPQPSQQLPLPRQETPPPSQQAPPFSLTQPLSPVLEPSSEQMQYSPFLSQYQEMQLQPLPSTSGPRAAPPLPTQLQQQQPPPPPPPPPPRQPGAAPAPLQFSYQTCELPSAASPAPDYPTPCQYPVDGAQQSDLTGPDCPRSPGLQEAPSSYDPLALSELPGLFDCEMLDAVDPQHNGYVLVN
# Procedure, shortened: as §1
# mouse CIA model = test: Collagen induced arthritis (CIA) model; type: in vivo
# Description: Completed Freund's adjuvant (CFA) and incomplete Freund's adjuvant (IFA) were purchased from Difco. Bovine collagen type II (CII), lipopolysaccharide (LPS), and Enbrel® (etanercept) were obtained from Chondrex (L'Isle d'Abeau, France); Sigma (P4252, L'Isle d'Abeau, France), Wyeth (25 mg injectable syringe, France), respectively. All other reagents used were of reagent grade and all solvents were of analytical grade.
# DBA1/J mice (male, 7-8 weeks old) were obtained from Charles River Laboratories (Écully, France). Mice were kept on a 12 h light/dark cycle. Temperature was maintained at 22° C., and food and water were provided ad libitum.
# One day before the experiment, CII solution (2 mg/mL) was prepared with 0.05 M AcOH and stored at 4° C. Just before the immunization, equal volumes of adjuvant (IFA) and CII were mixed by a homogenizer in a pre-cooled glass bottle in an ice water bath. Extra adjuvant and prolonged homogenization may be required if an emulsion is not formed. 0.2 mL of the emulsion was injected intradermally at the base of the tail of each mouse on day 1, a second booster intradermal injection (CII solution at 2 mg/mL in […] 0.1 mL saline) was performed on […]. This immunization method was modified from published methods (Jou et al. 2005; Sims et al. 2004).
# The therapeutic effects of the compounds were tested in the mouse CIA model. Mice were randomly divided into equal groups and each group contained 10 mice. All mice were immunized on day 1 and boosted on day 21. The negative control group was treated with vehicle (MC 0.5%) and the positive control group with Enbrel® (10 mg/kg, 3× week, sc). A compound of interest was typically tested at 3 doses per os (p.o.). At day 32, randomization between groups was performed with respect with clinical score and animals were therapeutically treated regarding their group until day 47. Body weight and clinical score, were recorded at least twice a week.
# Arthritis is scored according to the method of Khachigian 2006, Lin et al 2007 and Nishida et al. 2004 (Khachigian 2006; Lin et al. 2007; Nishida et al. 2004). […]
IC50 (SIK1) [nM],IC50 (SIK3) [nM],IC50 (SIK2) [nM],Structure (SMILES),further results
> 500,10 to 100,> 500,"CCC(C)(C#N)c1ccn2c(-c3cc(OC)c(C(=O)NC4CC4)c(OC(F)F)c3)cnc2c1 (stereo not shown) [Cpd 27, 4-[7-(1-cyano-1-methyl-propyl)imidazo[1,2-a]pyridin-3-yl]-N-cyclopropyl-2-(difluoromethoxy)-6-methoxy-benzamide]",–
> 500,10 to 100,> 500,"COc1cc(-c2cnc3cc(C(C)(C)C#N)ccn23)cc(OC)c1C(=O)NC1CC1 [Cpd 28, 4-[7-(1-cyano-1-methyl-ethyl)imidazo[1,2-a]pyridin-3-yl]-N-cyclopropyl-2,6-dimethoxy-benzamide]",–
100 to 500,0.01 to 10,10 to 100,"COc1cc(-c2cnc3cc(C4(C#N)CC4)ccn23)cc(OC(F)F)c1C(=O)NC1CC1 [Cpd 33, 4-[7-(1-cyanocyclopropyl)imidazo[1,2-a]pyridin-3-yl]-N-cyclopropyl-2-(difluoromethoxy)-6-methoxy-benzamide]",–
–,–,–,"COc1cc(-c2cnc3cc(C4COC4)ccn23)cc(OC(F)F)c1C(=O)NC1CC1 [Cpd 174, N-cyclopropyl-2-(difluoromethoxy)-6-methoxy-4-[7-(oxetan-3-yl)imidazo[1,2-a]pyridin-3-yl]benzamide]","clinical score compared to diseased vehicle group (B10.RIII mice, IL-23 EEV; 30 mg/kg p.o. b.i.d.): statistically significant decrease; clinical score compared to the vehicle group (mouse CIA model; 60 mg/kg p.o. b.i.d.): statistically significant decrease"
–,–,–,"COc1cc(-c2cnn3cc(C(C)(C)C#N)ccc23)cc(OC(F)F)c1C(=O)N[C@@H]1C[C@@H]1F [Cpd 219, 4-[6-(1-cyano-1-methyl-ethyl)pyrazolo[1,5-a]pyridin-3-yl]-2-(difluoromethoxy)-N-[(1R,2S)-2-fluorocyclopropyl]-6-methoxy-benzamide]","clinical score compared to diseased vehicle group (B10.RIII mice, IL-23 EEV; 3 mg/kg p.o. b.i.d.): statistically significant decrease; clinical score compared to the vehicle group (mouse CIA model; 3 mg/kg p.o. b.i.d.): statistically significant decrease"
–,–,–,"COc1cc(-c2cnn3cc(C4(N)CCC4)ccc23)cc(OC(F)F)c1C(=O)N[C@@H]1C[C@@H]1F [Cpd 261, 4-[6-(1-aminocyclobutyl)pyrazolo[1,5-a]pyridin-3-yl]-2-(difluoromethoxy)-N-[(1R,2S)-2-fluorocyclopropyl]-6-methoxy-benzamide]","clinical score compared to diseased vehicle group (B10.RIII mice, IL-23 EEV; 50 mg/kg p.o. b.i.d.): statistically significant decrease; clinical score compared to the vehicle group (mouse CIA model; 30 mg/kg p.o. b.i.d.): statistically significant decrease"

Structure (SMILES),IC50 (SIK1) [nM],IC50 (SIK3) [nM],IC50 (SIK2) [nM],further results
"COc1cc(-c2cnc3cc(C(C)(C)C#N)ccn23)cc(OC(F)F)c1C(=O)NC1CC1 [Cpd 19, 4-[7-(1-cyano-1-methyl-ethyl)imidazo[1,2-a]pyridin-3-yl]-N-cyclopropyl-2-(difluoromethoxy)-6-methoxy-benzamide]",> 500,0.01 to 10,> 500,"clinical score compared to diseased vehicle group (B10.RIII mice, IL-23 EEV; 10 mg/kg p.o. b.i.d.): statistically significant decrease"
